Experimental data published in paper PMC7359024, “Synthesis, Structure–Activity Relationship, and Mechanistic Studies of Aminoquinazolinones Displaying Antimycobacterial Activity” (ACS Infectious Diseases, 2020).
≈ marks a conversion by molar mass, not a printed value. Where two headings read alike, the source gives them in different places.

Legend:
Mtb H37Rv strain = assay: MIC90 determination in GASTE-Fe media (broth microdilution); assay type: cell-based, Mycobacterium tuberculosis; parameters: fold loss in activity/potency (MIC90): reference not given here
physchem = assay type: physicochemical; settings: for solubility: kinetic solubility, pH 7.4, HPLC method; for fold improvement in solubility: pH 7.4, relative to comparator analogue
Experimental: The kinetic solubility assay was performed using a miniaturised shake flask method. 10 mM stock solutions of each of the test compounds were used to prepare calibration standards (10-220μM) in DMSO. The same 10mM stock solutions were accurately dispensed in duplicate into 96-well plates and the DMSO dried down (MiVac GeneVac, 90 min, 37 °C). Thereafter, the samples were reconstituted (200 µM) in phosphate buffered saline (pH 7.4) and shaken (20 hours, 25 °C). The solutions were filtered and analysed by means of HPLC -DAD (Agilent 1200 Rapid Resolution HPLC with a diode array detector). […]

[1] = assay type: in vitro ADME; settings: for Metabolic Stability H (% Rem.): human liver microsomes; for Metabolic Stability M (% Rem.): mouse liver microsomes; for Metabolic Stability R (% Rem.): rat liver microsomes
Experimental: 3.2. Microsomal stability
The metabolic stability assay was performed in duplicate in a 96-well micro titre plate. The test compounds (0.1 μM) were incubated individually in mouse, rat and pooled human liver microsomes ((final protein concentration of 0.4 mg/mL; XenoTech, Lenexa, KS ), suspended in 0.1M phosphate buffer (pH 7.4) at 37 °C for predetermined time points, in the presence and absence of the cofactor NADPH (1 mM). Reactions were quenched by adding ice cold acetonitrile containing internal standard (carbamazepine, 0.0236 µg/mL). T he samples were centrifuged and test compound in the supernatant were analysed by means of LC -MS/MS (Agilent Rapid Resolution HPLC, AB SCIEX 4500 MS ). The relative loss of parent compound over time was monitored and plots (concentration vs. time) were prepared per compound to determine the first order rate constant for compound depletion. This was in turn used to calculate half-life, in vitro intrinsic clearance and in vivo hepatic extraction ratio. Metabolite searches were not conducted during the metabolic stability assay. 5

in vitro = settings: Chinese hamster
[2] = Mtb H37Rv, replicating conditions, GASTE-Fe media, read 14 days after incubation, read-out: MIC90 GASTE-Fe
[3] = Mycobacterium tuberculosis, H37RV, 336 h, Mtb H37Rv, replicating conditions, GASTE-Fe media, read 14 days after incubation, read-out: MIC90 GASTE-Fe
[4] = Mycobacterium tuberculosis, H37RV, 336 h, read-out: MIC90 GAST-Fe

SMILES	MIC90 (Mtb H37Rv strain; [3]) [µM]	solubility (physchem; 25 °C, pH 7.4, aqueous buffer) [µM]	Metabolic Stability H (% Rem.) [1]	Metabolic Stability M (% Rem.) [1] [% Rem.]	Metabolic Stability R (% Rem.) [1] [% Rem.]	MIC90 (Mtb H37Rv strain; [4]) [µM]	also measured
NC[C@H]1O[C@H](O[C@H]2[C@H](O)[C@@H](O[C@H]3O[C@H](CO)[C@@H](O)[C@H](N)[C@H]3O)[C@H](N)C[C@@H]2N)[C@H](O)[C@@H](O)[C@@H]1O [Kanamycin, reference compound]							MIC90 (Mtb H37Rv strain; [2]): 1.562 µM (≈ 0.757 µg/mL)
Cc1ccc(S(C)(=O)=O)cc1-c1ccc2nc(N)n(-c3ccc(C(F)(F)F)cc3)c(=O)c2c1 [compound 7]	4.22 (≈ 2 µg/mL)	53.3 (≈ 25.2 µg/mL)	65 % Rem.	90	86		solubility (physchem): 53 µM (≈ 25.1 µg/mL); fold improvement in solubility (physchem): 10 fold; IC50 (in vitro): > 100 µM
Nc1nc2ccc(-c3cccc(S(=O)(=O)C4CC4)c3)cc2c(=O)n1-c1ccc(C(F)(F)F)cc1 [compound 8]	2.35 (≈ 1.14 µg/mL)	66 (≈ 32 µg/mL)	85 % Rem.	97	98		IC50 (in vitro): 0.021 µM
NC(=O)c1cccc(-c2ccc3nc(N)n(-c4ccc(C(F)(F)F)cc4)c(=O)c3c2)c1 [compound 9]	< 0.244	< 5	97/-/- % Rem.				IC50 (in vitro): > 100 µM
CN(C)C(=O)c1cccc(-c2ccc3nc(N)n(-c4ccc(C(F)(F)F)cc4)c(=O)c3c2)c1 [compound 10]	2.15 (≈ 0.973 µg/mL)	46 (≈ 20.8 µg/mL)	85 % Rem.	89	86		IC50 (in vitro): 0.64 µM
CNC(=O)c1cccc(-c2ccc3nc(N)n(-c4ccc(C(F)(F)F)cc4)c(=O)c3c2)c1 [compound 11]	0.78 (≈ 0.342 µg/mL)	< 5	98 % Rem.	100	100		IC50 (in vitro): 96.3 µM
CNC(=O)c1cncc(-c2ccc3nc(N)n(-c4ccc(C(F)(F)F)cc4)c(=O)c3c2)c1 [compound 12]	9.22 (≈ 4.05 µg/mL)	40 (≈ 17.6 µg/mL)	85 % Rem.	75	85		fold loss in activity/potency (MIC90) (Mtb H37Rv strain): 10 fold; solubility (physchem): 39 µM (≈ 17.1 µg/mL)
Nc1nc2ccc(-c3cncc(C(=O)N4CCOCC4)c3)cc2c(=O)n1-c1ccc(C(F)(F)F)cc1 [compound 17, 2-Amino-6-(5-(morpholine-4-carbonyl)pyridin-3-yl)-3-(4-(trifluoromethyl)phenyl)quinazolin-4(3H)-one]	83 (≈ 41.1 µg/mL)						fold loss in activity/potency (MIC90) (Mtb H37Rv strain): 15 fold
COc1cncc(-c2ccc3nc(N)n(-c4ccc(C(F)(F)F)cc4)c(=O)c3c2)c1 [compound 24]		40 (≈ 16.5 µg/mL)	72/-/- % Rem.				IC50 (in vitro): > 100 µM
COc1cccc(-c2ccc3nc(N)n(-c4ccc(C(F)(F)F)cc4)c(=O)c3c2)c1 [compound 25]	10 (≈ 4.11 µg/mL)						
CC(C)(C)c1cccc(-c2ccc3nc(N)n(-c4ccc(C(F)(F)F)cc4)c(=O)c3c2)c1 [compound 26]	10 (≈ 4.37 µg/mL)						IC50 (in vitro): > 100 µM
Nc1nc2ccc(-c3cccc(Cl)c3)cc2c(=O)n1-c1ccc(C(F)(F)F)cc1 [compound 29]	0.675 (≈ 0.281 µg/mL)	< 5	73/-/- % Rem.				
NC(=O)c1cccc(-c2ccc3c(=O)n(-c4ccc(C(F)(F)F)cc4)c(N)nc3c2)c1 [compound 33]	1.22 (≈ 0.518 µg/mL)	58 (≈ 24.6 µg/mL)	96 % Rem.	92	93		fold improvement in solubility (physchem): 10 fold
C[S+]([O-])c1cccc(-c2ccc3nc(N)n(-c4cccc(C(F)(F)F)c4)c(=O)c3c2)c1 (stereo not shown) [compound 34]		> 100	50 % Rem.	51	58	14.8 (≈ 6.56 µg/mL)	solubility (physchem): 164 µM (≈ 72.7 µg/mL)
C[S+]([O-])c1cccc(-c2ccc3nc(N)n(-c4ccccc4)c(=O)c3c2)c1 (stereo not shown) [compound 35]						33 (≈ 12.4 µg/mL)	MIC90 (Mtb H37Rv strain; read-out: MIC90 GAST-Fe): 33.4 µM (≈ 12.5 µg/mL)
Cc1ccc(-n2c(N)nc3ccc(-c4cccc([S+](C)[O-])c4)cc3c2=O)cc1 (stereo not shown) [compound 36]		> 100	99 % Rem.	71	68	3.09 (≈ 1.2 µg/mL)	solubility (physchem): 172 µM (≈ 67 µg/mL)

SMILES	MIC90 (Mtb H37Rv strain; [3]) [µM]	solubility (physchem; 25 °C, pH 7.4, aqueous buffer) [µM]	Metabolic Stability H (% Rem.) [1]	Metabolic Stability M (% Rem.) [1] [% Rem.]	Metabolic Stability R (% Rem.) [1] [% Rem.]	MIC90 (Mtb H37Rv strain; [4]) [µM]	also measured
CS(=O)(=O)c1cccc(-c2ccc3ncn(-c4ccc(C(F)(F)F)cc4)c(=O)c3c2)c1 [compound 38, 6-(3-(Methylsulfonyl)phenyl)-3-(4-(trifluoromethyl)phenyl)quinazolin-4(3H)-one]	2.96 (≈ 1.32 µg/mL)	< 5					fold loss in activity/potency (MIC90) (Mtb H37Rv strain): 10 fold
CN(C)c1nc2ccc(-c3cccc([S+](C)[O-])c3)cc2c(=O)n1-c1ccc(C(F)(F)F)cc1 (stereo not shown) [compound 42, 2-(Dimethylamino)-6-(3-(methylsulfinyl)phenyl)-3-(4-(trifluoromethyl)phenyl)quinazolin-4(3H)-one]	2.89 (≈ 1.36 µg/mL)	< 5	82 % Rem.	80	86		
CN(C)c1nc2ccc(-c3cccc(S(C)(=O)=O)c3)cc2c(=O)n1-c1ccc(C(F)(F)F)cc1 [compound 43, 2-(Dimethylamino)-6-(3-(methylsulfonyl)phenyl)-3-(4-(trifluoromethyl)phenyl)quinazolin-4(3H)-one]	> 125	21.6 (≈ 10.5 µg/mL)	85 % Rem.	90	94		MIC90 (Mtb H37Rv strain; [2]): >125 µM
C[S+]([O-])c1cccc(-c2ccc3nc(N)n(-c4ccc(C(F)(F)F)nc4)c(=O)c3c2)c1 (stereo not shown) [compound 47, 2-Amino-6-(3-(methylsulfinyl)phenyl)-3-(6-(trifluoromethyl)pyridin-3-yl)quinazolin-4(3H)-one]		< 5	93 % Rem.	93	99	0.922 (≈ 0.41 µg/mL)	
C[S+]([O-])c1cccc(-c2ccc3nc(N)n(-c4ccccc4C(F)(F)F)c(=O)c3c2)c1 (stereo not shown) [compound 48]						> 125	
C[S+]([O-])c1cccc(-c2ccc3nc(N)n(-c4ccc(F)cc4)c(=O)c3c2)c1 (stereo not shown) [compound 49]		37.8 (≈ 14.9 µg/mL)	82 % Rem.	96	93	4.84 (≈ 1.9 µg/mL)	solubility (physchem): 38 µM (≈ 15 µg/mL)
C[S+]([O-])c1cccc(-c2ccc3nc(N)n(-c4ccccc4F)c(=O)c3c2)c1 (stereo not shown) [compound 50]						67 (≈ 26.4 µg/mL)	
C[S+]([O-])c1cccc(-c2ccc3nc(N)n(-c4ccc(S(C)(=O)=O)cc4)c(=O)c3c2)c1 (stereo not shown) [compound 51]						> 125	
C[S+]([O-])c1cccc(-c2ccc3nc(N)n(-c4ccc(O)cc4)c(=O)c3c2)c1 (stereo not shown) [compound 52]						> 125	
COc1ccc(-n2c(N)nc3ccc(-c4cccc([S+](C)[O-])c4)cc3c2=O)cc1 (stereo not shown) [compound 53]		> 100	100 % Rem.	99	103	6.75 (≈ 2.74 µg/mL)	solubility (physchem): 128 µM (≈ 51.9 µg/mL)
C[S+]([O-])c1cccc(-c2ccc3nc(N)n(-c4ccc(C#N)cc4)c(=O)c3c2)c1 (stereo not shown) [compound 54]		16.3 (≈ 6.53 µg/mL)	92 % Rem.	91	98	9.28 (≈ 3.72 µg/mL)	solubility (physchem): 16 µM (≈ 6.41 µg/mL)
C[S+]([O-])c1cccc(-c2ccc3nc(N)n(-c4cccc(C#N)c4)c(=O)c3c2)c1 (stereo not shown) [compound 55]						43 (≈ 17.2 µg/mL)	
C[S+]([O-])c1cccc(-c2ccc3nc(N)n(C4CCC(F)(F)CC4)c(=O)c3c2)c1 (stereo not shown) [compound 56]		> 100	95 % Rem.	83	81	45.7 (≈ 19.1 µg/mL)	solubility (physchem): 125 µM (≈ 52.2 µg/mL)
C[S+]([O-])c1cccc(-c2ccc3nc(N)n(C4CCC(C(F)(F)F)CC4)c(=O)c3c2)c1 (stereo not shown) [compound 57]						2.75 (≈ 1.24 µg/mL)	
C[S+]([O-])c1cccc(-c2ccc3nc(N)n(Cc4ccc(C(F)(F)F)cc4)c(=O)c3c2)c1 (stereo not shown) [compound 58]		> 100	52 % Rem.	69	61	> 31	solubility (physchem): 104 µM (≈ 47.6 µg/mL)
